Reference: EP3871665B1, “INHIBITORS OF RNA-BINDING PROTEINS AS ANTI-CANCER DRUGS” (priority 2020, dated 2021)
pIC50: −log10 of the molar value.

What was measured:
[1] = system: ES-2 IGF2BP1-KO cells re-expressing GFP-IGF2BP1; experiment: 2D growth / proliferation (cell confluence, IncuCyte S3), cells re-expressing wild type IGF2BP1; type: cell-based
Protocol: (§1) Statistical significance was analyzed by logrank test. […] Modified cysteines are highlighted in bold and upper position. […] Right: Local atomic fluctuations around cysteine residues. […] (A-C) RNA-dependent protein-protein association assay. […] EV (1) indicates mock-transfected controls. Representative Western (A) and Northern (C) blots are shown. P, pulldown; I, input. […] A representative Western blot analysis is shown in (C). […] Six mice were analyzed per condition. Error bars indicate standard deviation. […] Error bars indicate standard deviation of three analyses. […] DMSO-treated cells were used for comparisons. […] (*) p < 0.05, (**) p < 0.01, (***) p < 0.001. […] Data represent the mean ± SD (n = 6). […] (**) p < 0.01.
To probe if the identified residues are druggable targets, a search for chemical probes with exquisite chemo- and regioselectivity to cysteine residues was performed and their ability to target IGF2BP1's Cys253 and Cys336 was tested, whilst functioning as inhibitors. […] Both probes are known to covalently modify cysteine residues in a highly site-specific manner. […] These probes were then used in ES-2 IGF2BP1 KO cells, re-expressing either the wild type version of IGF2BP1 or the C253/336A mutant. The initial assay was set to observe if the probes influence the 2D growth, determined here as cell density, of ES-2 cells in a IGF2BP1-Cys253/336-dependent manner. IC50 values were determined by measuring the cell viability or cell confluence of cells incubated with increasing concentrations of J2 and J5.

[2] = system: ES-2 IGF2BP1-KO cells re-expressing GFP-IGF2BP1C253/336A; experiment: 2D growth / proliferation (cell confluence, IncuCyte S3), cells re-expressing C253/336A mutant; type: cell-based
Protocol: as §1
(§2) To probe if the identified residues are druggable targets, a search for chemical probes with exquisite chemo- and regioselectivity to cysteine residues was performed and their ability to target IGF2BP1's Cys253 and Cys336 was tested, whilst functioning as inhibitors. […] Both probes are known to covalently modify cysteine residues in a highly site-specific manner. […] The initial assay was set to observe if the probes influence the 2D growth, determined here as cell density, of ES-2 cells in a IGF2BP1-Cys253/336-dependent manner. IC50 values were determined by measuring the cell viability or cell confluence of cells incubated with increasing concentrations of J2 and J5.

[3] = Drug-likeness assessment / solubility in the assays; type: physicochemical
[4] = system: ES-2 IGF2BP1-KO cells re-expressing the wild type GFP-IGF2BP1; experiment: Cell viability (CellTiter Glo), cells re-expressing wild type IGF2BP1; type: cell-based
Protocol: as §1
To probe if the identified residues are druggable targets, a search for chemical probes with exquisite chemo- and regioselectivity to cysteine residues was performed and their ability to target IGF2BP1's Cys253 and Cys336 was tested, whilst functioning as inhibitors. […] The initial assay was set to observe if the probes influence the 2D growth, determined here as cell density, of ES-2 cells in a IGF2BP1-Cys253/336-dependent manner. IC50 values were determined by measuring the cell viability or cell confluence of cells incubated with increasing concentrations of J2 and J5.

[5] = system: ES-2 IGF2BP1-KO cells re-expressing the GFP-IGF2BP1C253/336A mutant; experiment: Cell viability (CellTiter Glo), cells re-expressing C253/336A mutant; type: cell-based; settings: cell viability 72h, read-out: IC50C253/336A
Protocol: as §1, §2

[6] = system: panel of cancer cell lines; experiment: Cell proliferation (IncuCyte S3 confluence) in a panel of cancer cell lines; type: cell-based; settings: 72h
[7] = system: ES-2 IGF2BP1-KO cells re-expressing GFP-IGF2BP1C253/336A; experiment: Spheroid Matrigel invasion assay, cells re-expressing C253/336A mutant; type: cell-based; settings: up to 6 µM; 24h post-treatment
Protocol: (§3) (A) Representative images of tumor cell spheroids (top panel), tumor cell invasion in matrigel (middle panel), and spheroid growth in anoikis resistance assays (lower panel) observed for ES-2 IGF2BP1-KO cells re-expressing GFP (1), wild type GFP-IGF2BP1 (2) or GFP- IGF2BP1-C253/336A (3). (B) Quantification of 2 independent experiments (n=9) shown in (A): spheroid viability (left panel), invasion index (middle panel) and anoikis resistance (right panel). Statistical significance was calculated by unpaired t-test as indicated. […] Tumor formation was determined for ES-2 IGF2BP1-KO cells re-expressing wild type IGF2BP1 (GFP-I1, 1) or GFP-IGF2BP1-C253/336A (GFP-C253/336A, 2). The tumor volume was measured at indicated time points post-injection by a caliper, (A). The final volume (B) and weight (C) of removed tumors were determined and are shown by boxplots. Representative images of macroscopic tumors acquired by non-invasive infrared imaging in mice (D) and excised tumors 17d post-injection (E). Six mice were analyzed per condition. Error bars indicate standard deviation. Statistical significance was calculated by unpaired t test with Welch's correction or ordinary one-way ANOVA with Tukey's multiple comparison test. […] 2000 cells either from ES-2 IGF2BP1-KO cells re-expressing GFP-IGF2BP1 or GFP-IGF2BP1C253/336A were seeded in a 96 well plate.

[8] = system: tumors bearing ES-2 cells re-expressing the C253/336A mutant; experiment: Xenograft tumor growth, ES-2 cells re-expressing C253/336A mutant; type: in vivo, female SCID mice; settings: 0.1 mg/kg daily intraperitoneally
Protocol: as §3

[9] = system: xenografts bearing ES-2 cells re-expressing the wild-type IGF2BP1 (GFP-IGF2BP1); settings: 0.1 mg/kg daily intraperitoneally; GFP-IGF2BP1 tumors
Protocol: as §3

IGF2BP1 = biological target: T1, IGF2BP1 (Homo sapiens, UniProt Q9NZI8); experiment: Site-specific protein modification (Cys-to-Dha conversion), LC-MS/MS readout; type: biochemical
T1 construct: made in house
Protocol: as §1
A multiple-Cys-containing RNA-binding protein with a recognized role in cancer is selected, for example and not limited to, the Insulin-like growth factor 2 mRNA binding protein 1 (IGF2BP1). It is then expressed in bacteria (not limited to), purified and submitted to site-specific protein modification reactions in vitro using cysteine-directed probes (Cys-to-Dha conversion), for example and not limited to, the compound 2,5 dibromohexanediamide (1). The reactions are performed in mild conditions, PBS buffer pH 8.0 for 1 h at 37∘C, using increasing equivalents of 1. The resulting reaction is then purified with a spin column and submitted to trypsin digestion followed by LC-MS/MS using standard protocols. The identification of Dha-modified peptides is performed by adding the corresponding mass shift of 33.9878 m/z (Dha) as a post-translational modification in the global search for modifications. The Dha conversion of specific cysteine residues is located within the primary sequence of the protein of interest (POI) to uncover preferentially modified cysteine residues.

T1 sequence (Q9NZI8 whole entry): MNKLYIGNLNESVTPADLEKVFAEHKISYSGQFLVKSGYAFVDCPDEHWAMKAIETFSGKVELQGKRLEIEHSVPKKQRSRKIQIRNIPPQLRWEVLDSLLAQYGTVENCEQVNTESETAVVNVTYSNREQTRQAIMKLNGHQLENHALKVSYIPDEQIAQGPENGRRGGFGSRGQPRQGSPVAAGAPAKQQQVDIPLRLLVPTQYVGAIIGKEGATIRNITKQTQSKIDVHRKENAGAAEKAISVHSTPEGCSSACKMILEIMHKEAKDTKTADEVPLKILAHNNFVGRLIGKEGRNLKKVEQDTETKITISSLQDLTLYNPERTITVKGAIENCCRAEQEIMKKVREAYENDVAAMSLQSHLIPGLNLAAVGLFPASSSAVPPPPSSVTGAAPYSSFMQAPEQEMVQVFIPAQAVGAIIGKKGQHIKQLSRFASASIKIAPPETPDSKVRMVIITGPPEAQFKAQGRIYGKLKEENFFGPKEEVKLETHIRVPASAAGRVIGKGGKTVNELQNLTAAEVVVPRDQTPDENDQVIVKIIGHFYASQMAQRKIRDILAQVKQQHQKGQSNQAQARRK

| SMILES | growth of ES-2 cells ([1]; 1µM, cells re-expressing the wild type protein) | pIC50 ([1]; cells expressing wild type IGF2BP1, confluence at 72h, DMSO = 100% growth) | selective cytoreductive effect ([1]; wild type vs C253/336A mutant cells) | growth of cells ([2]; 1µM, cells expressing the C253/336A mutant) | pIC50 ([2]; Homo sapiens, ES-2 cells expressing the C253/336A mutant, confluence at 72h) | solubility [3] | pIC50 ([4]; cell viability 72h, CellTiter Glo) | selectivity to ES-2 cells re-expressing the wild type IGF2BP1 ([4]; wild type vs C253/336A) | pIC50 [5] | potency in a panel of cancer cell lines [6] | invasion [7] | anti-tumor effect (tumor volume, tumor mass) [8] | anti-tumor effect (tumor volume, tumor mass) [9] | equivalents at which Cys253 was modified (IGF2BP1; PBS buffer pH 8.0, 1 h, 37°C) | equivalents at which Cys336 was modified (IGF2BP1; PBS buffer pH 8.0, 1 h, 37°C) | equivalents at which Cys336 was modified, in some reactions (IGF2BP1; in some reactions) | equivalents at which almost all cysteines (exception Cys110) were modified (IGF2BP1; in vitro) |
| --- | --- | --- | --- | --- | --- | --- | --- | --- | --- | --- | --- | --- | --- | --- | --- | --- | --- |
| O=C(/C=C/C(=O)c1ccccc1)NCCNc1ccc([N+](=O)[O-])c2nonc12 [J2, (E)-N-(2-((7-nitrobenzo[c][1,2,5]oxadiazol-4-yl)amino)ethyl)-4-oxo-4-phenylbut-2-enamide] | strong impairment | 6.08 | 2 fold | no substantial impact | 5.66 | solubility problems | – | – | – | – | – | – | – | – | – | – | – |
| CCNC(=O)/C=C/C(=O)c1ccccc1 [J5, (E)-N-ethyl-4-oxo-4-phenylbut-2-enamide] | – | – | – | – | – | much higher solubility | 6.01 | 1.8 fold | 5.76 | potency as anti-cancer drug in all of them | unchallenged invasion | absolutely no effect | strong anti-tumor effect | – | – | – | – |
| NC(=O)C(Br)CCC(Br)C(N)=O (stereo not drawn) [compound 1, 2,5 dibromohexanediamide] | – | – | – | – | – | – | – | – | – | – | – | – | – | 200 eq | 300 eq | 200 eq | above 500 eq |
